Results taken from PMC11865548 (Nature Communications, 2025).

Tests used:
[1] = biological target: T1, MexL (Pseudomonas aeruginosa, UniProt Q9HXW2); assay: BLI; format: binding
T1 sequence (Q9HXW2 1-212): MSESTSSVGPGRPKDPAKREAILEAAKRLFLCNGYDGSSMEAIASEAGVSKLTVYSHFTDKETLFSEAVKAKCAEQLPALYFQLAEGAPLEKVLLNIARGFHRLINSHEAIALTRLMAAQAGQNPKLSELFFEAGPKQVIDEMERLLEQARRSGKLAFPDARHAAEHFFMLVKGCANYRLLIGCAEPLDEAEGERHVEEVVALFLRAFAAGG

[2] = biological target: T1, MexL; assay: thermal shift; format: biochemical

SMILES	Kd [1]	thermal shift (Tm decrease) and EMSA interference with DNA binding [2]
Cn1c2cccc(=O)c-2nc2ccccc21 [PYO, pyocyanin]	84.2 ± 1.8 µM	
Oc1cc(Cl)ccc1Oc1ccc(Cl)cc1Cl [TCS, triclosan]		these two antimicrobials both can interfere with the DNA-binding activity of MexL in EMSA
CN(C)[C@@H]1C(O)=C(C(N)=O)C(=O)[C@@]2(O)C(O)=C3C(=O)c4c(O)cccc4[C@@](C)(O)[C@H]3C[C@@H]12 [TET, tetracycline]		both TET and TCS also significantly reduce the Tm values of MexL (Fig. 6b), indicating their interaction with MexL
